Values of other authors in patent publication US20180344690A1, “Methods and Formulation for Enhancing Response to Radiotherapy” (The Board of Trustees of the Leland Stanford Junior …, priority 2017, published 2018).

Experiments:
multiple myeloma (MM) = conditions: cited from earlier work
APL = conditions: untreated control 18 days; cytarabine vs cytarabine+Plerixafor p<0.0006; cited from earlier work

| SMILES | tumor progression (multiple myeloma (MM); bortezomib vs control P=0.041, combination vs control P=0.001, vs bortezomib alone P=0.021) | tumor involvement in BM, liver and spleen (multiple myeloma (MM); mouse, in vivo) | median overall survival (APL) |
| --- | --- | --- | --- |
| CC(C)C[C@H](NC(=O)[C@H](Cc1ccccc1)NC(=O)c1cnccn1)B(O)O [bortezomib] | reduction in tumor progression compared with control | significant decrease of tumor cells | – |
| Nc1ccn([C@@H]2O[C@H](CO)[C@@H](O)[C@@H]2O)c(=O)n1 [cytarabine] | – | – | 23 days |
